# Reference: patent publication US6355799B1, “Substituted benzene compounds, process for their preparation, and herbicidal and defoliant compositions containing them” (ISK Americas Incorporated, priority 1997, dated 2002)
# Legend:
# Type in all cases: in vivo
# [1] = test system: large crabgrass (Digitaria sanguinalis, DIGSA); experiment: Pre-emerge test, greenhouse herbicide activity screening; conditions: phytotoxicity rating 0-100, 14 days after application
# In short: (§1)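 Fourteen days after spraying, crop and weed injury was graded visually from 0, no effect, to 100, every plant dead. Test substances were dissolved in acetone and applied at 15–1000 g ai/ha with a flat-fan nozzle. Application was either pre-emergence, one day after sowing, or post-emergence at the 2–3 leaf stage.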
# [2] = test system: velvetleaf (Abutilon theophrasti, ABUTH); experiment: as above; conditions: phytotoxicity rating 0-100, 14 days after application
# In short: as §1
# [3] = test system: common ragweed (Ambrosia artemisizfolia L., AMBEL); experiment: as above; conditions: phytotoxicity rating 0-100, 14 days after application
# In short: as §1
# [4] = test system: barnyardgrass (Echinochloa crus-galli, ECHCG); experiment: as above; conditions: phytotoxicity rating 0-100, 14 days after application
# In short: as §1
# [5] = test system: green foxtail (Setaria viridis, SETVI); experiment: as above; conditions: phytotoxicity rating 0-100, 14 days after application
# In short: as §1
# [6] = test system: ivyleaf morningglory (Ipomoea hederacea, IPOHE); experiment: as above; conditions: phytotoxicity rating 0-100, 14 days after application
# In short: as §1
# [7] = test system: johnsongrass (Sorghum halepense, SORHA); experiment: as above; conditions: phytotoxicity rating 0-100, 14 days after application
# In short: as §1
# [8] = test system: sicklepod (Cassia obtusifolia, CASOB); experiment: as above; conditions: phytotoxicity rating 0-100, 14 days after application
# In short: as §1
# [9] = test system: lambsquarters (Chenopodium album, CHEAL); experiment: as above; conditions: phytotoxicity rating 0-100, 14 days after application
# In short: as §1
# [10] = test system: field corn (Zea mays L., var. Dekalb 535, CORN); experiment: Pre-emerge test, crop safety; conditions: crop damage rating 0-100, 14 days after application
# In short: (§2)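 Visual ratings on a 0-100 scale (0 no damage, 100 all plants dead) were taken at 14 days after treatment. Rates of 15-1000 g ai/ha in acetone, 187 l/ha, were sprayed onto soil one day after planting (pre-emerge) or onto 2-3 leaf plants with 0.25% v/v surfactant (post-emerge).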
# [11] = test system: upland rice (Oryza sp., var. Tebonnet, RICE); experiment: Pre-emerge test, crop safety; conditions: crop damage rating 0-100, 14 days after application
# In short: as §2
# [12] = test system: large crabgrass (Digitaria sanguinalis, DIGSA); experiment: Post-emerge test, greenhouse herbicide activity screening; conditions: post-emerge, 14 days after application, rating scale 0-100
# In short: (§3)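 Herbicidal damage is scored 0 (none) to 100 (complete plant death) two weeks after a simulated field spray. Rates span 15–1000 g ai/ha, delivered in acetone at 187 l/ha. For post-emergence treatments, plants have 2–3 leaves and the spray carries 0.25% v/v non-ionic surfactant.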
# [13] = test system: velvetleaf (Abutilon theophrasti, ABUTH); experiment: as above; conditions: post-emerge, 14 days after application, rating scale 0-100
# In short: as §3
# [14] = test system: common ragweed (Ambrosia artemisizfolia L., AMBEL); experiment: as above; conditions: post-emerge, 14 days after application, rating scale 0-100
# In short: as §3
# [15] = test system: barnyardgrass (Echinochloa crus-galli, ECHCG); experiment: as above; conditions: post-emerge, 14 days after application, rating scale 0-100
# In short: as §3
# [16] = test system: green foxtail (Setaria viridis, SETVI); experiment: as above; conditions: post-emerge, 14 days after application, rating scale 0-100
# In short: as §3
# [17] = test system: redroot pigweed (Amaranthus retroflexus, AMARE); experiment: as above; conditions: post-emerge, 14 days after application
# In short: as §3
# [18] = test system: ivyleaf morningglory (Ipomoea hederacea, IPOHE); experiment: as above; conditions: post-emerge, 14 days after application, rating scale 0-100
# In short: as §3
# [19] = test system: johnsongrass (Sorghum halepense, SORHA); experiment: as above; conditions: post-emerge, 14 days after application, rating scale 0-100
# In short: as §3
# [20] = test system: sicklepod (Cassia obtusifolia, CASOB); experiment: as above; conditions: post-emerge, 14 days after application, rating scale 0-100
# In short: as §3
# [21] = test system: lambsquarters (Chenopodium album, CHEAL); experiment: as above; conditions: post-emerge, 14 days after application, rating scale 0-100
# In short: as §3
# [22] = test system: field corn (Zea mays L., var. Dekalb 535, CORN); experiment: Post-emerge test, crop safety; conditions: post-emerge, 14 days after application, rating scale 0-100
# In short: as §1
# [23] = test system: upland rice (Oryza sp., var. Tebonnet, RICE); experiment: Post-emerge test, crop safety; conditions: post-emerge, 63 g ai/ha, 14 days after application, rating scale 0-100
# In short: as §1
# [24] = test system: redroot pigweed (Amaranthus retroflexus, AMARE); experiment: Pre-emerge test, greenhouse herbicide activity screening; conditions: phytotoxicity rating 0-100, 14 days after application
# In short: as §2
substance,measurement,setting,value
"2-(4-chloro-3-ethoxy-6-fluoro-2-naphthoylamidophenyl)-1-methyl-6-trifluoromethyl-2,4(1H, 3H)-pyrimidinedione [Compound 2-196]",Pre-emerge Herbicidal Activity DIGSA,[1]; 63 g ai/ha,90
same,Pre-emerge Herbicidal Activity DIGSA,[1]; 250 g ai/ha,100
same,Pre-emerge Herbicidal Activity ABUTH,[2]; 63 g ai/ha,100
same,Pre-emerge Herbicidal Activity ABUTH,[2]; 250 g ai/ha,100
same,Pre-emerge Herbicidal Activity AMBEL,[3]; 63 g ai/ha,30
same,Pre-emerge Herbicidal Activity AMBEL,[3]; 250 g ai/ha,90
same,Pre-emerge Herbicidal Activity ECHCG,[4]; 63 g ai/ha,40
same,Pre-emerge Herbicidal Activity ECHCG,[4]; 250 g ai/ha,85
same,Pre-emerge Herbicidal Activity SETVI,[5]; 63 g ai/ha,90
same,Pre-emerge Herbicidal Activity SETVI,[5]; 250 g ai/ha,100
same,Pre-emerge Herbicidal Activity IPOHE,[6]; 63 g ai/ha,20
same,Pre-emerge Herbicidal Activity IPOHE,[6]; 250 g ai/ha,70
same,Pre-emerge Herbicidal Activity SORHA,[7]; 63 g ai/ha,10
same,Pre-emerge Herbicidal Activity SORHA,[7]; 250 g ai/ha,20
same,Pre-emerge Herbicidal Activity CASOB,[8]; 63 g ai/ha,0
same,Pre-emerge Herbicidal Activity CASOB,[8]; 250 g ai/ha,60
same,Pre-emerge Herbicidal Activity CHEAL,[9]; 63 g ai/ha,100
same,Pre-emerge Herbicidal Activity CHEAL,[9]; 250 g ai/ha,100
same,Pre-emerge Herbicidal Activity CORN,[10]; 63 g ai/ha,0
same,Pre-emerge Herbicidal Activity CORN,[10]; 250 g ai/ha,0
same,Pre-emerge Herbicidal Activity RICE,[11]; 63 g ai/ha,20
same,Pre-emerge Herbicidal Activity RICE,[11]; 250 g ai/ha,50
same,phytotoxicity rating DIGSA,[12]; 63 g ai/ha,10
same,phytotoxicity rating DIGSA,[12]; 250 g ai/ha,20
same,phytotoxicity rating ABUTH,[13]; 63 g ai/ha,100
same,phytotoxicity rating ABUTH,[13]; 250 g ai/ha,100
same,phytotoxicity rating AMBEL,[14]; 63 g ai/ha,100
same,phytotoxicity rating AMBEL,[14]; 250 g ai/ha,90
same,phytotoxicity rating ECHCG,[15]; 63 g ai/ha,10
same,phytotoxicity rating ECHCG,[15]; 250 g ai/ha,10
same,phytotoxicity rating SETVI,[16]; 63 g ai/ha,30
same,phytotoxicity rating SETVI,[16]; 250 g ai/ha,20
same,phytotoxicity rating AMARE,"[17]; 63 g ai/ha, rating scale 0-100 (0 no damage, 100 complete death)",100
same,phytotoxicity rating AMARE,"[17]; 250 g ai/ha, rating scale 0-100",100
same,phytotoxicity rating IPOHE,[18]; 63 g ai/ha,90
same,phytotoxicity rating IPOHE,[18]; 250 g ai/ha,100
same,phytotoxicity rating SORHA,[19]; 63 g ai/ha,10
same,phytotoxicity rating SORHA,[19]; 250 g ai/ha,10
same,phytotoxicity rating CASOB,[20]; 63 g ai/ha,100
same,phytotoxicity rating CASOB,[20]; 250 g ai/ha,100
same,phytotoxicity rating CHEAL,[21]; 63 g ai/ha,100
same,phytotoxicity rating CHEAL,[21]; 250 g ai/ha,100
same,phytotoxicity rating CORN (crop damage),[22]; 63 g ai/ha,10
same,phytotoxicity rating CORN (crop damage),[22]; 250 g ai/ha,15
same,phytotoxicity rating RICE (crop damage),[23],30
same,Pre-emerge Herbicidal Activity AMARE,[24]; 63 g ai/ha,100
same,Pre-emerge Herbicidal Activity AMARE,[24]; 250 g ai/ha,100
